Measurements taken from patent US20250304545A1, “WATER-SOLUBLE HETEROCYCLYL POLYMETHINE CHROMOPHORES” (The Regents of the University of California, priority 2022, published 2025).

Columns and labels:
[1] = Photophysical characterization of Chrom7 dyes (absorption, emission, quantum yield); format: physicochemical
Description: (§1) Absorption spectra were collected on a JASCO V-770 UV-visible/NIR spectrophotometer after blanking with the appropriate solvent. Photoluminescence spectra were obtained on a Horiba Instruments PTI QuantaMaster Series fluorometer. Fetal bovine serum (FBS) or bovine serum were purchased from Gibco. Quartz cuvettes (10 mm×10 mm) were used for absorption and photoluminescence measurements unless otherwise noted. All spectra were obtained at ambient temperature. Fluorescence quantum yield was measured with 830 nm excitation using Flav7 as a reference (ΦF=0.61%).

[2] = system: HEK293 cells; experiment: Uptake and retention of dyes in cells (absorbance of cell lysates); format: cell-based; settings: 50 μM dye
Method: HEK293, SK-OV-3 or A375 cells were split into three cultures as replicates. For each replicate, cells were passed onto 12-well or 24-well plates and grown until ca. 80% confluency. Each well was incubated with 50 μM of AmmonChrom7 for 6 h, and the cells were washed with PBS and incubated in MEM medium supplemented with 1% FBS. At given time points, the cell media were removed and cells were lysed with lysis buffer (150 μL, containing 1% Triton X-100, 0.1% w/v SDS and 0.1% w/v sodium deoxycholate) and diluted with bovine serum (300 μL). The cell lysate was collected and frozen at −20° C. until analysis. To quantify dye content, maximum absorption was used to represent the dye concentration. Scattering was estimated and subtracted with absorption at 1050-1100 nm, using the following equation for fitting: […]

[3] = Biodistribution of water soluble SWIR fluorophores after i.v. injection; format: in vivo, mice; settings: 20 nmol into tail vein
Method: Animal experiments were conducted in conformity with guidelines from the University of California, Los Angeles with protocols approved by the Animal Research Committee (protocol number ARC-2018-047). Non-invasive whole mouse imaging was performed on athymic nude female mice (5-15 weeks old), purchased from Charles River Laboratories. Mice were anesthetized with inhaled 2-4% isoflurane. Tail vein injections were performed with a catheter assembled from a 29-gauge needle connected through plastic tubing to a syringe prefilled with isotonic saline solution. The bevel of the needle was then inserted into the tail vein and secured using tissue adhesive. […]
Imaging instrument was installed according to published procedure, using an Allied Vision Goldeye G-032 Cool TEC2 camera with illumination from LU0975DLU350-S30AN03 (35 W, 975 nm laser) and LU0785D250-U70AN (25 W, 785 nm laser) Lumics laser units to record images at 14-bit depth. […] Fluorescence images were recorded with an 1100 nm long-pass filter unless otherwise noted. Dual-channel imaging (SulfoChrom7/ICG, or fluorescent imaging/bright field imaging) was performed with pulsed excitation that matches the detection window of the camera, or persistent ambient fluorescent lighting for bright field images to be subtracted as background in the fluorescence channel. […]

[4] = Aggregation / monomeric dispersion by absorption spectra in water, MeOH/H2O and serum; format: physicochemical; settings: for aggregation state: in water
Description: as §1

[5] = Brightness comparison by SWIR imaging of dyes in FBS in capillaries; format: physicochemical
Method: (§2) Imaging instrument was installed according to published procedure, using an Allied Vision Goldeye G-032 Cool TEC2 camera with illumination from LU0975DLU350-S30AN03 (35 W, 975 nm laser) and LU0785D250-U70AN (25 W, 785 nm laser) Lumics laser units to record images at 14-bit depth. Illumination was adjusted to 100 mW/cm^2 for 975 nm and 50 mW/cm^2 for […]. Excitation was provided at 975 nm for Sulfo-, Ammon-, Zwit- and PhosphoChrom7, and at 785 nm for ICG. Fluorescence images were recorded with an 1100 nm long-pass filter unless otherwise noted. Dual-channel imaging (SulfoChrom7/ICG, or fluorescent imaging/bright field imaging) was performed with pulsed excitation that matches the detection window of the camera, or persistent ambient fluorescent lighting for bright field images to be subtracted as background in the fluorescence channel.

[6] = Stability assay in FBS; format: in vitro ADME; settings: over 2 days at 37° C. in FBS, 1 μM dye
Method: Dyes were diluted to 1 μM in 1 mL of FBS containing 0.02% w/v NaN3 and placed in disposable cuvettes. The cuvettes were sealed with parafilm and placed in 37° C. incubator until given time points. Absorption spectra were taken using the maximum absorption to represent the dye concentration. Each condition was performed in triplicate.

[7] = Systemic vasculature SWIR imaging with SulfoChrom7, compared with ICG; format: in vivo, mice; settings: for distribution within 30 min: co-injection of SulfoChrom7 and ICG, 10 nmol each i.v.
Method: (§3) Animal experiments were conducted in conformity with guidelines from the University of California, Los Angeles with protocols approved by the Animal Research Committee (protocol number ARC-2018-047). Non-invasive whole mouse imaging was performed on athymic nude female mice (5-15 weeks old), purchased from Charles River Laboratories. Mice were anesthetized with inhaled 2-4% isoflurane. Tail vein injections were performed with a catheter assembled from a 29-gauge needle connected through plastic tubing to a syringe prefilled with isotonic saline solution. The bevel of the needle was then inserted into the tail vein and secured using tissue adhesive. The plastic tubing was then connected to a syringe (30-gauge needle) prefilled with the compound of interest. All solutions were filtered through a 0.22 μm syringe filter prior to i.v. injection.
as §2
Images were processed using the Fiji distribution of ImageJ. All images were background subtracted to correct for non-linearities in the detector and/or excitation. […] Videos were saved as raw avi and cropped, frame-rate adjusted and compressed with FFmpeg. For dual-channel imaging, emission of the SulfoChrom7 and AmmonChrom7 in 785 nm channel was estimated to be 9.0% intensity of their 975 nm image as derived from the capillary experiment, and subtracted from the 785 nm channel.

[8] = Bone imaging in mice with PhosphoChrom7; format: in vivo
Method: as §3, §2
Images were processed using the Fiji distribution of ImageJ. All images were background subtracted to correct for non-linearities in the detector and/or excitation. […] Videos were saved as raw avi and cropped, frame-rate adjusted and compressed with FFmpeg. […]

[9] = Hydroxyapatite binding assay; settings: 50 μM dye in bovine serum, sequential washes
Method: Hydroxyapatite powder was purchased from Acros Organics. To a suspension of 10 mg of hydroxyapatite in 100 μL of bovine serum was added 50 μM PhosphoChrom7 and the mixture was placed on a revolver for 30 min for initial binding, followed by centrifugation to remove supernatant. For washing, the pellet was resuspended in 100 μL of bovine serum by vortexing and placed on a revolver for 30 min followed by centrifugation to remove supernatant. The pellet was finally resuspended in 100 μL of bovine serum for imaging under the SWIR camera. For quantification, each centrifuge tube containing the suspension was recorded at the center of the illumination/viewing field to calculate mean fluorescence intensity at the bottom area of the tube.

[10] = system: HEK293 cells; experiment: MTT toxicity assay; format: cell-based; settings: low concentrations
Method: HEK293 cells were split into three cultures as replicates. For each replicate, HEK293 cells were passed onto flat-bottomed 96-well plate to 40-50% confluency and left 6 h for adhesion. Different concentrations of compounds were added to the medium (1:40 dilution from aqueous stock solution) in quadruplicate and incubated for 18 h. After incubation, cells were treated with 100 μL of full media containing 0.5 mg/mL MTT for 2 h, followed by addition of 100 μL of aqueous solution containing 10% SDS and 1:1000 HCl. After 3-4 h incubation, cell viability was determined by measuring the absorbance at 490 nm using a plate reader.

[11] = Photophysical properties of exemplary compounds in DCM solution; format: physicochemical; settings: for λmax (first value of the cell): first of two wavelengths; for λmax (second value of the cell): second of two wavelengths
[12] = system: SK-OV-3 tumors; experiment: Fluorescence tracking of growth of SK-OV-3 tumor xenografts; format: in vivo, mice; settings: 39 days after xenograft, 4 h after i.v. OTL-38
Method: A375 or SK-OV-3 cells were grown to confluency and incubated with full media supplemented with 50 μM of AmmonChrom7 for 12 h. Cells were then incubated with full media for 6 h, followed by digestion with trypsin-EDTA. The cell pellet was further washed with PBS (×3). For A375 cells, stained or unstained cells were suspended in 1:1 PBS and Matrigel; 100 μL of cell suspension (3.3 million cells) were injected to each site. Tumor 2D-projected sizes A were monitored by caliper measurement of long diameter a and short diameter b of the tumors and estimated by the following equation:
For SK-OV-3 cells, cells were suspended in 1:1 PBS and Matrigel; 100 μL of cell suspension (2.5 million cells) was injected to each site. […]
Imaging instrument was installed according to published procedure, using an Allied Vision Goldeye G-032 Cool TEC2 camera with illumination from LU0975DLU350-S30AN03 (35 W, 975 nm laser) and LU0785D250-U70AN (25 W, 785 nm laser) Lumics laser units to record images at 14-bit depth. […] Fluorescence images were recorded with an 1100 nm long-pass filter unless otherwise noted. Dual-channel imaging (SulfoChrom7/ICG, or fluorescent imaging/bright field imaging) was performed with pulsed excitation that matches the detection window of the camera, or persistent ambient fluorescent lighting for bright field images to be subtracted as background in the fluorescence channel.

[13] = in vivo; cited from earlier work
[14] = reference value; cited from earlier work

C#CCN(CC#C)c1ccc2c(c1)OC(C(C)(C)C)=C/C2=C\C=C1/CCCC(/C=C/c2cc(C(C)(C)C)[o+]c3cc(N(CC#C)CC#C)ccc23)=C1c1ccccc1C [Propargyl-Chrom7]
εmax ([1]; in MeOH): 14 ± 1 10^4 M^−1cm^−1 | λmax ([1]; in MeOH): 928 nm

Cc1ccccc1C1=C(C=Cc2cc(C(C)(C)C)[o+]c3cc(N(Cc4cn(CCCS(=O)(=O)[O-])nn4)Cc4cn(CCCS(=O)(=O)[O-])nn4)ccc23)CCCC1=CC=C1C=C(C(C)(C)C)Oc2cc(N(Cc3cn(CCCS(=O)(=O)[O-])nn3)Cc3cn(CCCS(=O)(=O)[O-])nn3)ccc21.[Na+].[Na+].[Na+] [SulfoChrom7]
cellular uptake (absorbance of cell lysates) [2]: minimal | distribution after 3 h [3]: diffuse signal through the mouse body, but still with substantial liver accumulation | εmax ([1]; in FBS): 9.5 10^4 M^−1cm^−1 | λmax ([1]; in FBS): 963 nm | φF ([1]; in FBS): 0.0056 ± 0.0003 | εmax ([1]; in MeOH): 16.5 ± 0.2 10^4 M^−1cm^−1 | λmax ([1]; in MeOH): 938 nm | φF ([1]; in MeOH): 0.0106 ± 0.0002 | aggregation state [4]: discernible monomer absorption | emission in 785 nm channel as intensity of the 975 nm image ([5]; derived from the capillary experiment): 9.0% | SWIR brightness compared with ICG / among the dyes ([5]; in FBS, 975 nm excitation (ICG 785 nm)): brightest of the fluorophores | fraction of dye left [6]: around ½ | brightness ratio over ICG in veins, maximum over time ([7]; co-injection 10 nmol each, 1300 nm LP filter): 7-8 fold | distribution within 30 min [7]: still reflected the superficial vasculature map while also displaying liver accumulation | amount of dye that enables video-rate imaging of liver and vasculature ([7]; tail vein, 33 fps, 1100 nm LP filter): 0.05 nmol

Cc1ccccc1C1=C(C=Cc2cc(C(C)(C)C)[o+]c3cc(N(Cc4cn(CCCP(=O)(O)O)nn4)Cc4cn(CCCP(=O)(O)O)nn4)ccc23)CCCC1=CC=C1C=C(C(C)(C)C)Oc2cc(N(Cc3cn(CCCP(=O)(O)O)nn3)Cc3cn(CCCP(=O)(O)O)nn3)ccc21 [PhosphoChrom7]
aggregation peak ([4]; in FBS): 760 nm | solubility ([4]; in FBS): lower than the Sulfo-, Ammon-, or ZwitChrom7 | organ distribution on dissection ([8]; 54 h after i.v. injection): the liver is the major target of the dye | time at which bone structures begin to feature ([8]; after i.v. injection): 8 h | clearance ([8]; compared to previous hydrophilic dyes): slightly faster clearance | binding towards hydroxyapatite [9]: strong binding affinity | toxicity [10]: mild

CN(C)c1ccc2c(c1)SC(c1ccccc1)=C/C2=C\C=C1/CCCC(/C=C/c2cc(-c3ccccc3)[s+]c3cc(N(C)C)ccc23)=C1c1cc(C(C)(C)C)cc(C(C)(C)C)c1 [DitBuPh SFlav7]
ϕF [11]: 0.11 ± 0.02% | λmax (first value of the cell) [11]: 1079 nm | λmax (second value of the cell) [11]: 1107 nm

CC1(C)C(/C=C/C2=C(Oc3ccc(C[C@H](NC(=O)c4ccc(NCc5cnc6nc(N)[nH]c(=O)c6n5)cc4)C(=O)[O-])cc3)C(=C/C=C3\N(CCCCS(=O)(=O)[O-])c4ccc(S(=O)(=O)[O-])cc4C3(C)C)/CCC2)=[N+](CCCCS(=O)(=O)[O-])c2ccc(S(=O)(=O)[O-])cc21.[H+].[H+].[H+].[H+] [OTL-38]
specificity of tumor staining ex vivo [12]: much non-specific accumulation

Cc1cc(C)cc(C2=C(/C=C/C3=CC(c4ccccc4)=[SH]c4cc(N(C)C)ccc43)CCC/C2=C\C=C2/C=C(c3ccccc3)Sc3cc(N(C)C)ccc32)c1 [DiMePh SFlav7]
ϕF [11]: 0.11 ± 0.01% | λmax (first value of the cell) [11]: 1079 nm | λmax (second value of the cell) [11]: 1107 nm

CC1(C)C(/C=C/C=C/C=C/C=C2\N(CCCCS(=O)(=O)O)c3ccc4ccccc4c3C2(C)C)=[N+](CCCCS(=O)(=O)[O-])c2ccc3ccccc3c21 [ICG, indocyanine green, reference compound]
time of hepatobiliary clearance [13]: ≤ 6 h | distribution within 30 min [7]: most ICG accumulated in the liver with secretion into the intestine, leaving negligible signal in the mouse body

Cc1ccccc1C1=C(C=Cc2cc(C(C)(C)C)[o+]c3cc(N(Cc4cn(CCC[N+](C)(C)CCCS(=O)(=O)[O-])nn4)Cc4cn(CCC[N+](C)(C)CCCS(=O)(=O)[O-])nn4)ccc23)CCCC1=CC=C1C=C(C(C)(C)C)Oc2cc(N(Cc3cn(CCC[N+](C)(C)CCCS(=O)(=O)[O-])nn3)Cc3cn(CCC[N+](C)(C)CCCS(=O)(=O)[O-])nn3)ccc21.[Cl-] [ZwitChrom7]
cellular uptake (absorbance of cell lysates) [2]: minimal | distribution after 3 h [3]: diffuse signal through the mouse body, but still with substantial liver accumulation | quantum yield ([1]; in FBS): 0.32% | εmax ([1]; in FBS): 11.5 10^4 M^−1cm^−1 | λmax ([1]; in FBS): 960 nm | φF ([1]; in FBS): 0.0032 ± 0.0003 | εmax ([1]; in MeOH): 16.4 ± 0.4 10^4 M^−1cm^−1 | λmax ([1]; in MeOH): 940 nm | φF ([1]; in MeOH): 0.0101 ± 0.0004 | aggregation state [4]: primarily aggregated | fraction of dye left [6]: 1/10

CN(C)c1ccc2c(c1)OC(c1ccccc1)=C/C2=C\C=C1/CCCC(/C=C/c2cc(-c3ccccc3)[o+]c3cc(N(C)C)ccc23)=C1Cl [Flav7]
ΦF of the reference for fluorescence quantum yield [14]: 0.61%
